Source: patent publication US20120165408A1, “ORAL COMPOSITION FOR ALLEVIATING ROUGH SKIN” (Shiseido Company, Ltd., priority 2009, published 2012)

Tests used:
[1] = tested on: skin barrier function in SDS-treated mice; experiment: Rough skin experiment, long term (28-day) oral administration: transepidermal water loss after SDS treatment; format: in vivo, HR-1 hairless mice; conditions: 10 mM in drinking water, two hours after the second SDS treatment (28th day); for Δ(delta) TEWL value: negative control 2.4
Experimental: The administration of the amino acid, the rough skin experiments and the quantification of the transepidermal water loss were conducted similarly to Example 1 using the HR-1 hairless mice described above. The amino acid employed was 10 mM L- or D-glutamic acid or L- or D-glutamine. The negative control employed was drinking water containing no amino acid. The SDS treatment was conducted on the 27th and 28th days after starting the administration of the amino acid. In this Example, the SDS treatments on the 27th and 28th days after starting the administration of the amino acid described above are referred to as the first and the second SDS treatments, respectively. The quantification of the transepidermal water loss was conducted two hours after the second SDS treatment.
The error bars for relevant experimental conditions are the standard deviations of the measured values of the results of the experiments repeated five times under identical conditions. The asterisk (*) indicates p<5% by Dunnett's test.

[2] = tested on: skin barrier function in SDS-treated mice; experiment: Rough skin experiment, short term (11-day) oral administration: transepidermal water loss after SDS treatment; format: in vivo, HR-1 hairless mice; conditions: for Δ(delta) TEWL value: difference from the negative control (Dunnett's test, p<5%): 2 hours after the second SDS treatment
Experimental: HR-1 hairless mice (males, seven-week old, Hoshino Laboratory Animals, Inc.) were subjected to the experiment. Each experimental group included seven to eight mice.
In order to examine the effect of the amino acid on the rough skin, 1 mM or 10 mM D-glutamic acid was given with drinking water. The negative control employed was drinking water containing no D-glutamic acid.
An unwoven fabric soaked with a 10% SDS solution was brought into contact for five minutes with one side of the back of a mouse under anesthesia (hereinafter referred to as “SDS treatment”) on the 10th and 11th days after starting the administration of D-glutamic acid. The SDS treatment may be conducted two to five times repetitively until the rough skin becomes evident. In this Example, the SDS treatments on the 10th and 11th days after starting the administration of D-glutamic acid are referred to as the first and the second SDS treatments, respectively. Also in the following transepidermal water loss measurements, an area treated with SDS is referred to as an “SDS treated area,” while an area of the opposite side which was not treated with SDS is referred to as an “SDS non-treated area.”
In order to quantify the rough skin condition, the transepidermal water loss was measured immediately before the first SDS treatment (before SDS treatment) and two hours after the first and the second SDS treatments using a transepidermal water loss meter (Tewameter TM-300, manufactured by Courage+Khazaka electronic GmbH) in accordance with the instruction provided by the manufacturer. Here, the value obtained by subtracting the quantity of the transepidermal water loss of the SDS non-treated area from the quantity of the transepidermal water loss of the SDS treated area was regarded as a “Δ(delta) TEWL value.”
The error bars for relevant experimental conditions are the standard deviations of the measured values of the results of the experiments seven to eight times under identical conditions. The asterisk (*) indicates p<5% by Dunnett's test.

Compound | Δ(delta) TEWL value: difference from the negative control (Dunnett's test, p<5%) [1] | Δ(delta) TEWL value [1] [g/m^2/h] | Δ(delta) TEWL value: difference from the negative control (Dunnett's test, p<5%) ([2]; 1 mM in drinking water) | Δ(delta) TEWL value ([2]; 1 mM in drinking water, immediately before the first SDS treatment (10th day), negative control 0.7) [g/m^2/h] | Δ(delta) TEWL value ([2]; 1 mM in drinking water, two hours after the first SDS treatment (10th day), negative control 2.2) [g/m^2/h] | Δ(delta) TEWL value ([2]; 1 mM in drinking water, two hours after the second SDS treatment (11th day), negative control 7.0) [g/m^2/h] | Δ(delta) TEWL value: difference from the negative control (Dunnett's test, p<5%) ([2]; 10 mM in drinking water) | Δ(delta) TEWL value ([2]; 10 mM in drinking water, immediately before the first SDS treatment (10th day), negative control 0.7) [g/m^2/h] | Δ(delta) TEWL value ([2]; 10 mM in drinking water, two hours after the first SDS treatment (10th day), negative control 2.2) [g/m^2/h] | Δ(delta) TEWL value ([2]; 10 mM in drinking water, two hours after the second SDS treatment (11th day), negative control 7.0) [g/m^2/h]
N[C@@H](CCC(=O)O)C(=O)O [L-glutamic acid] | no significant difference | 1.1 | – | – | – | – | – | – | – | –
NC(=O)CC[C@H](N)C(=O)O [L-glutamine] | no significant difference | 2.3 | – | – | – | – | – | – | – | –
NC(=O)CC[C@@H](N)C(=O)O [D-glutamine] | no significant difference | 3.3 | – | – | – | – | – | – | – | –
N[C@H](CCC(=O)O)C(=O)O [D-glutamic acid] | significant difference | −0.9 | significant difference | 0.4 | 1.5 | 3.2 | significant difference | 0.1 | 1.2 | 3.8
